Results from patent US20030130272A1, “Anthracene derivatives as anti-cancer agents” (priority 1999, published 2003).

Columns and labels:
pBR322 DNA = assay: DNA binding assay: fluorescence quenching, displacement of ethidium bromide and Hoechst dye 33258; conditions: for QH50: concentration displacing 50% of Hoechst dye 33258 (groove binder) from DNA; for QE50: concentration displacing 50% of ethidium bromide (intercalator) from DNA
Description: The present inventors have now determined that the introduction of appropriately positioned, conformationally restricted groups into the spacer group of spacer-linked anthraquinone-amino acid or peptide conjugates, allows control of the affinity and mode of binding to DNA. This affinity and mode of binding to DNA is readily determined by fluorescence quenching experiments in which the Q50 values for displacement of ethidium bromide, a DNA intercalator, and for Hoechst 33258 dye, a DNA minor-groove-binder, from which their fluorescent DNA-bound complexes are measured and expressed in μM units of drug concentration (see PCT/GB99/01901 incorporated herein by reference).
The propensity of selected compounds to bind to DNA in the absence of topos was measured in order to identify compounds that would bind weakly, or not at all. […] A […] was used determine binding constants of the compound to DNA by displacement of either ethidium bromide (an intercalator) or Hoechst dye 33258 (a groove binder) which form a DNA-bound fluorescent complex measured by fluorescence spectroscopy.
DNA Binding Assay Protocol
In order to detect the strength and mode of anthraquinone compound binding to DNA the displacement of known DNA binders was detected by measuring the fluorescence of a DNA/fluorescent compound complex. The addition of known concentrations of ethidium bromide, an interchelator, and Hoescht Dye, a groove binder, cause a fluorescent DNA/binder complex that can be detected and the fluorescence quantified. The addition of anthraquinone compounds displaces the interchelators or groove binders, depending on the compound mode of DNA binding, and therefore reduces the fluorescence accordingly. The preferred binding action of compounds can be quantified by determining the reduction in fluorescence resulting from a given concentration of compound. The quantification of a compounds ability to bind to DNA is expressed, as the concentration required to displace 50% of the ethidium bromide or Hocscht Dye, thus reducing the fluorescence by 50%. Therefore, the values produced are QE50 for ethidium, bromide, or QH50 for Hoescht Dye.
Compound: 300, 60, 10 and 10/6 µM (1.66 μM) solution concentrations were prepared for use in the assay to produce a range of compound. Concentrations. 100, 200 and 300 μl of each dilution were used in the assay reaction. This provides a range of concentrations: −30, 20, 10, 6, 4, 2, 1, 0.67, 0.33, 0.17, 0.11, 0.06, 0.00 μM in the assay environment. Intermediate concentrations can be utilised to enhance the accuracy of the displacement concentration determination.
Buffer: 100 mM Tris, NaCI 500 mM. […] Stock solution of 200 μM was prepared in 10× assay buffer. Dilution of DNA therefore provided the correct concentration of assay buffer in the assay cell. 300 μg DNA was used in 3 ml reaction mixture therefore 20 μM DNA concentration. Hoescht Dye 2 μM final concentration, therefore 100 μl of a 60 μM stock solution was added to a 3 ml assay. Ethidium Bromide 2 μM final concentration therefore 100 μl of a 60 μM stock solution was added to a 3 ml assay. Distilled H2O Water was added to produce 3 ml reaction volume. Order of addition: 1. DNA, 2. Water, 3. Drug, 4. Dye
The assay was completed with both Hoescht Dye and Ethidium. Bromide for each compound. The ethidium bromide is a DNA inter-chelator, Hoescht Dye is a minor groove binder. 100, 200 and 30 gμ of the lowest compound dilution was assayed. This procedure was repeated with all further dilution's. This provided a curve of fluorescence intensity decrease with increasing compound concentration. QE50 and QH50 values were determined by extrapolating the concentration of compound at the point where the fluorescence intensity was reduced by 50%. Controls involving compound only and ethidium. bromide or Hoechst Dye without compound were carried out for each experiment. […]

MAC 15A cells = assay: In vitro activity against MAC 15A adenocarcinoma (MTT assay); assay type: cell-based; conditions: MAC15A colon adenocarcinoma, 96 hours continuous exposure
Protocol: MAC 15A cells were grown in RPMI 1640 medium supplemented with 10% foetal calf serum containing a 1% antibiotic mixture under standard tissue culture conditions and were maintained at 37° C. in a humidified atmosphere of 5% CO2 in air. Cells were harvested from a stock culture in exponential growth phase and plated in 96-well flat-bottomed plates to achieve a final density of 2×10^3 cells per well. After 2 hours incubation medium was replaced with either fresh medium containing 0.5% DMSO (control) or medium containing test compound dissolved in DMSO at a concentrations from 10 mM to 1 nM. Chemosensitivity was assessed using MTT assay by the method of Plumb et al Cancer Research 49 (1989) 4435-4440.
Following 96 hours continuous exposure to drug at 37° C. cells were incubated with fresh drug-free medium immediately prior to addition of MTT solution (5 mg/ml). Medium and MTT were removed after 4 hours and 150 μl of DMSO was added. For each plate the absorbance of the resulting solution was measured at the analytical wavelength 550 nm for formnazan product, using a Labsystem Mutiskan. IC50 values were obtained from growth curves of drug concentration against % survival and are expressed in μm.
In vitro Cytotoxicity of Spacer Limked Anthraquinone Peptide Conjugates on MAC15A Colon Adenocarcinoma

topo I [1] = target: T1, topo I (Homo sapiens, UniProt P11387); assay: Stimulation of topoisomerase I mediated cleavage of pBR322 DNA; assay type: biochemical; conditions: for nicked plasmid DNA (topo I mediated cleavage): at 25 μM
T1 sequence (P11387 1-765): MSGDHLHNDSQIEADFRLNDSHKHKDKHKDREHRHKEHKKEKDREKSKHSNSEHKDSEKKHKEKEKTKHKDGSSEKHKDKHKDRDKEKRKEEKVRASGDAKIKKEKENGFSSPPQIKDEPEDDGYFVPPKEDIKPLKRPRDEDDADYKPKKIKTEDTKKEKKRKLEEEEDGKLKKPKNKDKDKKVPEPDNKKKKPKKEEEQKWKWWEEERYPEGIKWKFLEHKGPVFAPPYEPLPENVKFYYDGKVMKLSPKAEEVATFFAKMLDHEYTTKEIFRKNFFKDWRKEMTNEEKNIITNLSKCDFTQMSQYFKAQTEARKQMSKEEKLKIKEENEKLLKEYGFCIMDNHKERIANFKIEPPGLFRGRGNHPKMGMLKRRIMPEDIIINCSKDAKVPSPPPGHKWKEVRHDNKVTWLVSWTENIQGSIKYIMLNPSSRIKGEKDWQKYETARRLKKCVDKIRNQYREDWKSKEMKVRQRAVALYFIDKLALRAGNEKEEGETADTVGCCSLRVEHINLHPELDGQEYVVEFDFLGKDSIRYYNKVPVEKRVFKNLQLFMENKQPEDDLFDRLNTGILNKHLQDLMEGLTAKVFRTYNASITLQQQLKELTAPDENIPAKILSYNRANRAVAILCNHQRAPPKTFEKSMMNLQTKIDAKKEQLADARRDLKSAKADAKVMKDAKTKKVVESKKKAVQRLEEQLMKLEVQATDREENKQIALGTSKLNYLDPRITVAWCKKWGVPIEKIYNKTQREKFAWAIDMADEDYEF
Description: To determine the effect of the newly synthesised compounds on the catalytic activity of topo I and II (α and β), specific tests measuring relaxation, decatenation and enzyme-mediated cleavage of DNA were employed using purified human topos.
Simulation of Topoisomerase I Mediated Cleavage of pBR322DNA by Spacer-Linked Anthraquinone-Peptide Conjugates

topo I [2] = target: T1, topo I; assay: Inhibition of topoisomerase I mediated relaxation of pBR322 DNA; assay type: biochemical
topo I [3] = target: T1, topo I; assay: Immunoband depletion of topoisomerase I in HL-60 cells; assay type: cell-based; design: endogenous in cells; host or cells: HL-60 human leukemia cells
Protocol: Immunoband Depletion of Topoisomerase I
The data provides good evidence for ternary complex (drug-DNA-enzyme) formation in viable whole cells.
The method was adapted from Boege and Andersen [Selected novel flavones inhibit the DNA binding or the DNA religation step of cukaryotic topoisomerase I, F. Boege, T. Straub, A. Kehr, C. Boesenberg, K. Christiansen, A. Andersen, F. Jakob, J, Kohrle, J. Biol. Chem., 271, 2262, (1996)]; briefly, 10^6 HL-60 cells were cultivated for 1 h with and without drugs. Reactions were terminated by sedimentation of the cells (1000×g, 5 min, 4° C.) and subsequent lysis in PBS/NP40, RIPA buffer containing pepstatin and leupeptin. Samples were subjected to SDS-polyacrylamide (8%) gel electrophoresis and proteins that had entered the gel were electrophoretically transferred to nitro-cellulose sheets by the semi-dry method. Immunstaining of immobilised proteins was carried out using a polyclonal Ab of human topo I [topogen], and subsequently anti-human Ig biotinylated whole Ab (sheep)[Amersham], streptavidin horse-radish peroxidase and the ECL system [Amersham].

HL-60 Human Leukemia = assay: In vitro cytotoxicity against HL-60 human leukemia; assay type: cell-based
Description: In vitro Cytotoxicity of Spacer-Linked Anthraquinone-Peptide Conjugates Against HL-60 Human Leukemia

Row | Molecule | melting point | QH50 (pBR322 DNA) | QE50 (pBR322 DNA) | IC50 (MAC 15A cells) | nicked plasmid DNA (topo I mediated cleavage) (topo I [1]) | also measured
1 | O=C1c2ccccc2C(=O)c2c1cccc2N1CCNCC1 | 190 °C | – | – | – | – | –
2 | 1-(2-β-alanylpiperazinyl)anthracene-9,10-dione trifluoroacetate salt [Example 15] | – | 1.6 µM | 11.4 µM | 20 µM | – | –
3 | O=C(O)C(F)(F)F.O=C1c2ccccc2C(=O)c2c1cccc2N1CCNCC1 [Example 4b, 1-(1-piperazinyl)anthracene-9,10-dione trifluoroacetate salt] | 170 °C | 1.7 µM | 10.5 µM | – | – | –
4 | N[C@@H](Cc1ccccc1)C(=O)NC1CCC(Nc2cccc3c2C(=O)c2ccccc2C3=O)CC1.O=C(O)C(F)(F)F (stereo partly drawn) [Example 26, (2S)-2-amino-N-{4-[(9,10-dioxoanthryl)amino]cyclohexyl}-3-phenylpropanamide trifluoroacetate salt] | – | 2.3 µM | 6.5 µM | 3.5 µM | 45% nicked plasmid DNA at 25 μM | DNA-topoisomerase activity: inhibition of topo I relaxation (topo I [2]; between 25-100 μM): NO inhibition between 25-100 μM; intensity of the (100 kDa) topo I band (topo I [3]; 1 h with drug, in comparison with camptothecin): Reductions in the intensity of the (100 kDa) topo I band were observed; extent of immunoband depletion (topo I [3]; above 200 μM): comparable to the effect of camptothecin at 50 μM
5 | Nc1ccc(Nc2cccc3c2C(=O)c2ccccc2C3=O)cc1 | 175 to 182 °C | – | – | – | – | –
6 | CN(CCO)c1cccc2c1C(=O)c1c(cccc1N(C)CCO)C2=O | 168 to 178 °C | – | – | – | – | –
7 | C[C@H](N)C(=O)N1CCN(c2cccc3c2C(=O)c2ccccc2C3=O)CC1.O=C(O)C(F)(F)F [Example 17, 1-(1-L-alanylpiperazinyl)anthracene-9,10-dione trifluoroacetate salt] | – | – | – | 25 µM | 10% nicked plasmid DNA at 25 μM | IC50 (HL-60 Human Leukemia): 10.7 µM; DNA-topoisomerase activity: inhibition of topo I relaxation (topo I [2]; at 25 μM): COMPLETE inhibition at 25 μM
8 | (2R)-2-amino-N-{4-[(9,10-dioxoanthryl)amino]cyclohexyl}-3-phenylpropanamide trifluoroacetate salt [Example 28] | – | – | – | 8 µM | 20% nicked plasmid DNA at 25 μM | DNA-topoisomerase activity: inhibition of topo I relaxation (topo I [2]; at 50 μM): PARTIAL inhibition at 50 μM
9 | O=C1c2c(O)ccc(O)c2C(=O)c2c(NCCNCCO)ccc(NCCNCCO)c21 [Mitoxantrone, reference compound] | – | 1.0 µM | 0.35 µM | – | – | –
10 | N[C@@H](Cc1ccccc1)C(=O)N1CCN(c2cccc3c2C(=O)c2ccccc2C3=O)CC1.O=C(O)C(F)(F)F [Example 21, 1-(1-L-phenylalanylpiperazinyl)anthracene-9,10-dione trifluoroacetate salt] | – | – | – | – | – | DNA-topoisomerase activity: topo I mediated cleavage (topo I [1]; between 10-100 μM): NO CLEAVAGE between 10-100 μM; DNA-topoisomerase activity: inhibition of topo I relaxation (topo I [2]; at 10 μM): COMPLETE inhibition at 10 μM
